Tests used:
[1] = target: T1, Estrogen receptor-alpha (ERα) (Homo sapiens, UniProt P03372); assay: ERα degradation in T47D cells, western blot; assay type: cell-based; parameters: except that T47D cells were utilized instead of the MCF7 cells; endogenous in cells; host or cells: T47D cells; conditions: 7 concentrations 100 nM to 0.1 nM, 10% FBS, 72 hours
T1 sequence (P03372 1-595): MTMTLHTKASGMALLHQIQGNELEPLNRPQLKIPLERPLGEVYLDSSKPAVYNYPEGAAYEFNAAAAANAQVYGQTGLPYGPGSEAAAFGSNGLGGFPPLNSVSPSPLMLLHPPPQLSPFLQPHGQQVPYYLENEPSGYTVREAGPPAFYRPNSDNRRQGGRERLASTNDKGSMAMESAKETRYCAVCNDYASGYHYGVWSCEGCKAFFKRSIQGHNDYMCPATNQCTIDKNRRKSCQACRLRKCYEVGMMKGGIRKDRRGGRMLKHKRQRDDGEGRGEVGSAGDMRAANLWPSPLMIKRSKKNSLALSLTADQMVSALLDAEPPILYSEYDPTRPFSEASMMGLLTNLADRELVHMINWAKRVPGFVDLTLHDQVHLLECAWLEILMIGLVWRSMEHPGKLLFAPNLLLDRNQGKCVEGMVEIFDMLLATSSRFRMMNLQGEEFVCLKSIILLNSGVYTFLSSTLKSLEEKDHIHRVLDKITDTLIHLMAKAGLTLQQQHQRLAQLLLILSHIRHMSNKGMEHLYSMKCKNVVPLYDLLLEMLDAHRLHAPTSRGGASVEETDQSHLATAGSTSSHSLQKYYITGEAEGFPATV
Method: Compounds prepared in this application were also analyzed for their ability to degrade ERα in MCF7 and T47D cells.
Estrogen receptor-alpha (ERα) degradation assay in T47D cells using western blot method. The same protocol that was described above with MCF7 cells was utilized, except that T47D cells were utilized instead of the MCF7 cells.

[2] = target: T1, Estrogen receptor-alpha (ERα); assay: ERα degradation in MCF-7 cells, western blot; assay type: cell-based; parameters: assessed for their activity in degrading ERα in MCF-7 cells via western blot; endogenous in cells; host or cells: MCF7 cells; conditions: 10% FBS; for Degradation of ERα in MCF7 cells (immunoblot, FIG. 2): 7 concentrations 100 nM to 0.1 nM, 48 hours
Method: FIG. 2 and FIG. 3 illustrate represent exemplary compounds from the western blot assay.
Estrogen receptor-alpha (ERα) degradation assay in MCF-7 cells using western blot method. The exemplary novel ERα degraders were assessed for their activity in degrading ERα in MCF-7 cells via western blot. The assay was carried out in the presence of 10% […] bovine serum (FBS) or high percentage of human or mouse serum.
MCF7 cells were grown in DMEM/F12 with 10% fetal bovine serum and seeded at 24,000 cells per well in 100 μl into 96-well clear tissue culture plates. The following day, the cells were treated with PROTACs in a 7-point concentration curve with 100 nM being the top concentration and serial dilutions to make the other concentrations (30 nM, 10 nM, 3 nM, 1 nM, and 0.3 nM). At all concentrations, 0.01% DMS is the final concentration in the well. […], washed with 50 μl of cold P1BS, The cells are lysed with 50 μl/well 4° (Cell Lysis Buffer (Catalog #9803; Cell Signaling Technology, Danvers, Mass.) (20 mM Tris-HCL (pH 7.5), 150 mM NaCl, 1 mM Na2EDTA, 1 mM EGTA, 1% Triton, 2.5 mM sodium pyrophosphate, 1 mM B-glycerophosphate, 1 mM sodium vanadate, 1 ug/ml leupeptin). Lysates were clarified at 16,000×g for 10 minutes, and 2 μg of protein was subjected to SDS-PAGE analysis and followed by immunoblotting according to standard protocols. The antibodies used were ERα (Cell Signaling Technologies Catalog #8644), and Tubulin (Sigma Catalog #T9026; St Louis, Mo.). Detection reagents were Clarity Western ECL substrate (Bio-Rad Catalog #170-5060; Hercules, Calif.).
Alternatively, MCF7 cells were grown in DMEM/F12 with 10% fetal bovine serum and seeded at 24,000 cells per well in 500 μl in 24-well clear tissue culture plates. The following day, the cells were treated with PROTACs in a 5-point concentration curve (100 nM, 33 nM, 11 nM, 3.7 nM, and 1.2 nM) in the presence of 0.01% DMSO, After 72 hours, the wells are aspirated and washed with 500 μl of PBS. The cells are lysed with 100 μl/well 4° C. […]

| Degradation of ERα in T47D cells (immunoblot, FIG. 4) [1] | Degradation of ERα in MCF7 cells (immunoblot, FIG. 2) [2] | Degradation of ERα in MCF7 cells (immunoblot, FIG. 3) ([2]; 5 concentrations 100 nM to 1.2 nM, 72 hours) | Compound |
| --- | --- | --- | --- |
| Degradation of ERα | Degradation of ERα |  | O=C1CCC(N2Cc3cc(N4CCN(CCCCCOc5ccc([C@@H]6c7ccc(O)cc7CC[C@@H]6c6ccccc6)cc5)CC4)ccc3C2=O)C(=O)N1 (stereo partly drawn) [Example 62, 3-{5-[4-(5-{4-[(1R,2S)-6-hydroxy-2-phenyl-1,2,3,4-tetrahydronaphthalen-1-yl]phenoxy}pentyl)piperazin-1-yl]-1-oxo-2,3-dihydro-1H-isoindol-2-yl}piperidine-2,6-dione] |
| Degradation of ERα | Degradation of ERα |  | Cc1ncsc1-c1ccc(CNC(=O)[C@@H]2C[C@@H](O)CN2C(=O)[C@@H](NC(=O)COCCN2CCN(CCOc3ccc([C@@H]4c5ccc(O)cc5CC[C@@H]4c4ccccc4)cc3)CC2)C(C)(C)C)cc1 [Example 1, (2S,4R)-4-hydroxy-1-[(2S)-2-(2-{2-[4-(2-{4-[(1R,2S)-6-hydroxy-2-phenyl-1,2,3,4-tetrahydronaphthalen-1-yl]phenoxy}ethyl)piperazin-1-yl]ethoxy}acetamido)-3,3-dimethylbutanoyl]-N-{[4-(4-methyl-1,3-thiazol-5-yl)phenyl]methyl}pyrrolidine-2-carboxamide] |
|  |  | Degradation of ERα | O=C1CCC(N2Cc3cc(N4CCN(CC5CCN(c6ccc([C@@H]7c8ccc(O)cc8CC[C@@H]7c7ccccc7)cc6)CC5)CC4)ccc3C2=O)C(=O)N1 (stereo partly drawn) [Example 341, 3-[5-[4-[[1-[4-[(1R, 2S)-6-hydroxy-2-phenyl-tetralin-1-yl]phenyl]-4-piperidyl]methyl]piperazin-1-yl]-1-oxo-isoindolin-2-yl]piperidine-2,6-dione] |

Source: US11597720B2, “Tetrahydronaphthalene and tetrahydroisoquinoline derivatives as estrogen receptor degraders” (Arvinas Operations, Inc., priority 2016, dated 2023)
